Test results published in US20260242390A1, “TOTAL SYNTHESES OF PORTIMINE A AND ANALOGUES THEREOF AS SMALL MOLECULE MODULATORS OF NMD3” (priority 2023, published 2026).
Entries after “also recorded” stand apart in the source; their conditions may differ.

Tested on: primary human PBMCs
Assay: Toxicity to primary human PBMCs
Assay type: cell-based
Details: PBMCs 25k per well, 0.23 pM to 1 uM, 12 hr, compared to Jurkat
Experimental: Structurally related negative control ePA and PB are non-toxic in all cell types in the current concentrate range. PBMCs (25k per well), Jurkat (10k per well). Compound concentration was increased from […] to 1 uM, 4× per gradient, PBMCs using primary B cell media from Wesley (heat deactivated), and Jurkat using normal RPMI media and incubated for 12 hr.
FIG. 3. Initial SAR studies: Assessing activity of PAL functionalized PTMA analogs. […] (A) PA and Ph-PA show less toxic to healthy PBMCs compared to Jurkat cells. […] (B) Immunoblot of caspase-3 in Jurkat and PBMCs with indicated conditions.
• 1) Portimine A and its functional analogs show stereo-selective acute toxicity in cancer cells (FIG. 1). […] (B) Structure of portimine related analogs: phenyl-portimine A (Ph-PA, 36) and epi-portimine A (ePA, 38). Structure of fully functionalized portimine A-based epimeric probe pair: portimine A-diazirine-alkyne (PA-DA, 35-2) and epi-portimine A-diazirine-alkyne (ePA-DA, 35-1). (C) Cell viability analysis of portimine A and analogs. Jurkat cells were treated with increasing concentrations of portimine A and analogs for 24 hours. All presented data as mean of biological replicated experiments (n=3). […] Jurkat cells were treated with portimine A or analogs for 12 hours at 10 nM. […] Structurally related negative control ePA and PB are non-toxic in all cell types in the current concentrate range. PBMCs (25k per well), Jurkat (10k per well). […] Cell cycle analysis in Jurkat cells (FIG. 2). Jurkat cells were treated with 10 nM of indicated compounds for 24 hours, and propodium iodide was used to identify different stages of cells by flow cytometry. […] (A) PA and Ph-PA show less toxic to healthy PBMCs compared to Jurkat cells. […] (B) Immunoblot of caspase-3 in Jurkat and PBMCs with indicated conditions. […] (A) Pharmacokinetic studies of mouse intraperitoneal (i.p.) and oral (p.o.) administration for portimine (n=3). […] Impact of PA [0.3 or 1 mg/kg intraperitoneally] on MC38 tumor growth in WT mice (n=6). (C) Kaplan-Myer survival curve of WT MC38 tumor-bearing mice (n=6) after treatment with PA as described in (D). Mice were euthanized when tumor area exceeded 2000 mm^3. Statistical analysis was performed using ANOVA analysis followed by multiple comparisons test, * p≤0.05. Treatment condition: Jurkat (60 M per condition); PA-DA/ePA-DA concentration: 0.5 uM, PA or ePA: 5 uM; Incubate with probe with or without competitors (PA, ePA) for 30 min; UV irradiated for 20 min. (0.5 uM PA-DA add a no-UV condition), Standard pulldown & biotin-enrichment and western blot analysis (Elute condition: 2× sample buffer+500 uM biotin, boil for 20 mins); Primary antibody NMD3 (ProteinTech, 1:150), Actin (BioRad, 1:10000). […] Chemical proteomic profiling with PA-DA in Jurkat cells (A, B, C, G) and HCC1806 cells (D, E, F, H) show NMD3 is the primary target candidate of portimine A. Volcano plot in panels A and D show protein competition in cells treated with active photoaffinity probe PA-DA (500 nM) and DMSO or the active competitor portimine A (PA, […]), dotted lines indicate threshold of fold change <4, p-value>0.05. […] (I, J) Confirmation of PA-DA engagement of NMD3 in Jurkat and HCC1806 cells. […] Treatment condition: Jurkat (5M per well). Portimine A concentration: 2 nM-1000 nM; In total treat cell for 12 hours. […] Protein degradation of p53, Mcl1, Bid, Bim, Noxa can be rescued by MG132 or Epoxomicin. (B) NMD3 mRNA increased after PA treatment, but not ePA control compound. […]

| SMILES | toxicity to healthy / primary human PBMCs | toxicity to healthy / primary human PBMCs (listed as Portimine A) |
| --- | --- | --- |
| CC1C[C@@H](O)C(=O)[C@H]2O[C@]3(CC[C@@H]1O3)CC(O)C1=NCC[C@@]13CCC(c1ccccc1)=C[C@H]23 (some centres unmarked) [Ph-PA, phenyl-portimine A] | substantially less toxic |  |
| C=CC1=C[C@@H]2[C@@H]3OC4(CC[C@H](O4)C(C)C[C@@H](O)C3=O)CC(=O)C3=NCC[C@@]32CC1 (some centres unmarked) [PB, portimine B] | non-toxic; also recorded: non-toxicity |  |
| C=CC1=C[C@@H]2[C@@H]3O[C@]4(CC[C@H](O4)C(C)C[C@@H](O)C3=O)CC(O)C3=NCC[C@@]32CC1 (some centres unmarked) [PA, portimine A] | substantially less toxic | non-toxic; also recorded: do not induce apoptosis or affect cell viability |
| C=CC1=C[C@@H]2[C@@H]3O[C@]4(CC[C@H](O4)C(C)C[C@@H](O)C3=O)C[C@@H](O)C3=NCC[C@@]32CC1 (stereo partly drawn) [ePA, epi-portimine A] | non-toxic; also recorded: non-toxicity |  |
